Source: patent US20060281100A1, “Thiotriphosphate nucleotide dye terminators” (priority 2005, published 2006)

Test: Spectral measurements: absorbance and emission spectra, Beckman DU7400 spectrophotometer, water media
Assay type: physicochemical
Experimental: Unless otherwise stated, ultraviolet spectra (UV) were recorded for samples dissolved in MeOH or water contained in a one cm path length quartz cell using a Beckman DU-7400 spectrophotometer.

## CCN1/C(=C/C=C/C=C/C2=[N+](CCCCCC(=O)O)c3ccc(S(=O)(=O)O)cc3C2(C)C)C(C)(C)c2cc(S(=O)(=O)[O-])ccc21 [Cy5]
Absorbance maximum of the free cyanine dye in water
  Abs (H2O), Cyanine Dyes: 649 nm
Emission maximum in water, column stands after the cyanine dye columns
  Em (H2O): 675 nm
